Drawing on US12570673B2, “c-Myc protein inhibitor, and preparation method therefor and use thereof” (SUZHOU KINTOR PHARMACEUTICALS, INC., priority 2019, dated 2026), this text covers IC50 and Kd for 40 compounds.

One experiment relates to HL60 cells. As to the kind of experiment: Anti-cancer activity test, MTT, HL60 cells. The format is cell-based. To be noted: Homo sapiens, HL-60, culturing for 72 hours. How it is done: Cell culture medium: Roswell medium RPMI-1640 (+L-glutamine) was added with 10% fetal bovine serum, with 100 units penicillin and 100 μg streptomycin per ml.
Cell culture conditions: 5% CO2, 95% humidity, cultured at 37° C. constant temperature.
2. Cell Inoculation, Drugs Dosing and Culture.
Logarithmic growth phase HL-60, human chronic myeloid leukemia cells (K562), human esophageal squamous cell carcinoma cells (KYSE510), human large cell lung cancer cells (H460) were inoculated into 96-well cell culture plates, 2×10^4 cells per well. Different concentrations of active compounds (dissolved in dimethyl sulfoxide (DMSO) stock solution) were added, so that the final concentration of DMSO was 0.2%, and the control group was DMSO. Each group was repeated three times.
After culturing for 72 hours, 20 µL of thiazolyl blue (MTT) (5 mg/ml, ready for use, dissolved in 1×PBS for cell culture) was added to each well, and incubated at 37° C. for 3 hours.
The 96-well cell culture plates were centrifuged at 1000 rpm for 10 minutes. The supernatant was discarded; 200 μL of DMSO was added to each well and the plate was shaken for 5 minutes.
The absorbance of each well was detected at 570 nm wavelength with a microplate reader, and the IC50 of the compounds was calculated.

Experiment [1] addresses c-Myc370-412-biotin peptide (Homo sapiens (Human), UniProt P01106). As to the kind of experiment: SPR binding affinity on c-Myc protein. Conditions: c-Myc370-412-biotin peptide immobilized, 1.00×PBS-P buffer (5% DMSO). How it is done:
1. Experiment Preparation
10×PBS-P was diluted into 1.05×PBS-P buffer solution for later use. The c-Myc370-412-biotin peptide was dissolved in chromatographic pure DMSO to prepare a 1 mM stock solution. The molecules were dissolved in chromatographic pure DMSO to prepare a 10 mM stock solution. Part of 1.05×PBS-P buffer was added to chromatographic pure DMSO to prepare 1.00×PBS-P buffer (5% DMSO, ready for use).
The highest solubility of each small molecule in the 1.00×PBS-P buffer (5% DMSO) system was tested respectively. This solubility was used as the highest concentration tested for small molecule activity.
2. Protein Immobilization
The c-Myc370-412-biotin peptide stock solution was added to 1.05×PBS-P buffer to prepare a 50 μM solution, and then diluted with 1.00×PBS-P buffer (5% DMSO) to […] for protein immobilization.
After washing the sample channel and reference channel of the chip with 1.00×PBS-P buffer (5% DMSO), an automatic mode was used to immobilize the protein in the sample channel. The target amount of the immobilized protein was 500RU. The immobilization was successful. The buffer was used continuously to flush until equilibrium.
3. Small Molecule Activity Test.
Buffer was used to prepare different concentrations of small molecule compounds for sample testing. The system was 1.00×PBS-P buffer (5% DMSO). The difference was detected between the response of small molecules flowing through the sample channel and the reference channel.
The experimental conditions were a flow rate of 30 μL/min, binding time of 120 seconds, and dissociation time of 240 seconds. After each binding and dissociation test, 50% DMSO was used to flush the tubing, and 10 mM glycine-HCl buffer (pH 2.1) was used to flush the surface of the chip to wash away the remaining compound molecules.

SMILES strings stand for the structures.

Sequence of c-Myc370-412-biotin peptide (P01106 385-427): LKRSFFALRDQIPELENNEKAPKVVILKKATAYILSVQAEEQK

In the case of `CC(C)C[C@H](NC(=O)[C@@H](NC(=O)OCC1c2ccccc2-c2ccccc21)[C@@H](C)OC(C)(C)C)B1O[C@@H]2C[C@@H]3C[C@@H](C3(C)C)[C@]2(C)O1` [Compound A2], the IC50 (usually the midpoint of a concentration-inhibition curve) with HL60 cells was less than 100 nM. In addition, the Kd (commonly a measure of binding affinity in units of concentration) in experiment [1] lay in the range of 100 to 500 nM.
In the experiment on HL60 cells, `CC(C)C[C@H](NC(=O)[C@H](CSC(c1ccccc1)(c1ccccc1)c1ccccc1)NC(=O)OCC1c2ccccc2-c2ccccc21)B1O[C@@H]2C[C@@H]3C[C@@H](C3(C)C)[C@]2(C)O1` [Compound A3] yielded an IC50 of 500 to 2000 nM. Further, the Kd in experiment [1] fell in the range of 100 to 500 nM.
For `CC(C)C[C@H](NC(=O)[C@H](Cc1cn(C(c2ccccc2)(c2ccccc2)c2ccccc2)cn1)NC(=O)OCC1c2ccccc2-c2ccccc21)B1O[C@@H]2C[C@@H]3C[C@@H](C3(C)C)[C@]2(C)O1` [Compound A4], in that order: less than 100 nM and less than 100 nM.
For `CC(C)C[C@H](NC(=O)[C@H](CCC(=O)NC(c1ccccc1)(c1ccccc1)c1ccccc1)NC(=O)OCC1c2ccccc2-c2ccccc21)B1O[C@@H]2C[C@@H]3C[C@@H](C3(C)C)[C@]2(C)O1` [Compound A6], in that order: less than 100 nM and less than 100 nM.
For `CC(C)C[C@H](NC(=O)[C@H](CCC(=O)OC(C)(C)C)NC(=O)OCC1c2ccccc2-c2ccccc21)B1O[C@@H]2C[C@@H]3C[C@@H](C3(C)C)[C@]2(C)O1` [Compound A7], in that order: less than 100 nM and less than 100 nM.
As for `CC(C)C[C@H](NC(=O)[C@H](Cc1c[nH]c2ccccc12)NC(=O)c1nc2ccccc2s1)B(O)O` [Compound A73], the IC50 with HL60 cells was less than 100 nM.
On the same count and under the same terms, as for `CC(C)C[C@H](NC(=O)[C@H](Cc1c[nH]c2ccccc12)NC(=O)c1ccc2ncccc2c1)B(O)O` [Compound A74], the figure is less than 100 nM; as for `CC(C)C[C@H](NC(=O)[C@H](Cc1c[nH]c2ccccc12)NC(=O)c1cnc2ccccc2c1)B(O)O` [Compound A75], less than 100 nM.
Same read-out and setting: as for `CC(C)C[C@H](NC(=O)[C@H](Cc1c[nH]c2ccccc12)NC(=O)c1ccc2ccccc2c1)B(O)O` [Compound A76], the figure is less than 100 nM; as for `CC(C)C[C@H](NC(=O)[C@H](Cc1c[nH]c2ccccc12)NC(=O)NC1CCCC1)B(O)O` [Compound A77], less than 100 nM; as for `CC(C)C[C@H](NC(=O)[C@H](Cc1c[nH]c2ccccc12)NC(=O)OC1CCCC1)B(O)O` [Compound A78], less than 100 nM.
Same read-out and setting: as for `CC(C)C[C@H](NC(=O)[C@H](Cc1c[nH]c2ccccc12)NCc1ccccc1)B(O)O` [Compound A79], the figure is 100 to 500 nM.
`COC(=O)C[C@H](NC(=O)CC1c2ccccc2-c2ccccc21)C(=O)N[C@@H](CC(C)C)B(O)O` [Compound A80] returned an IC50 with HL60 cells of less than 100 nM.
As for `CC(C)C[C@H](NC(=O)[C@H](CC(N)=O)NC(=O)CC1c2ccccc2-c2ccccc21)B(O)O` [Compound A81], in the experiment with HL60 cells, the IC50 lay in the range of 100 to 500 nM.
Still for that read-out and setting: as for `CC(C)C[C@H](NC(=O)OCC1c2ccccc2-c2ccccc21)C(=O)N1CCC[C@H]1B(O)O` [Compound A82], the figure is 2000 to 10000 nM; as for `CC(C)C[C@H](NC(=O)[C@H](CC(C)C)N(C)C(=O)OCC1c2ccccc2-c2ccccc21)B(O)O` [Compound A83], 2000 to 10000 nM; as for `CC(C)C[C@H](NC(=O)CNC(=O)OCC1c2ccccc2-c2ccccc21)B(O)O` [Compound A84], less than 100 nM.
Same read-out and setting: as for `CC(C)C[C@H](NC(=O)[C@@H](C)NC(=O)OCC1c2ccccc2-c2ccccc21)B(O)O` [Compound A85], the figure is 100 to 500 nM.
Still for that read-out and setting: then `CC(C)C[C@H](NC(=O)[C@H](C)NC(=O)OCC1c2ccccc2-c2ccccc21)B(O)O` [Compound A86], with less than 100 nM; and `COc1ccc2cc(C(=O)N[C@@H](Cc3c[nH]c4ccccc34)C(=O)N[C@@H](CC(C)C)B(O)O)ccc2c1` [Compound A87], with less than 100 nM; and `CC(C)C[C@H](NC(=O)[C@H](Cc1c[nH]c2ccccc12)NC(=O)c1ccc2cc(N)ccc2c1)B(O)O` [Compound A88], with less than 100 nM.
As for `CC(C)C[C@H](NC(=O)[C@H](CC(=O)NC(c1ccccc1)(c1ccccc1)c1ccccc1)NC(=O)OCC1c2ccccc2-c2ccccc21)B(O)O` [Compound A89], the IC50 in the experiment with HL60 cells was 100 to 500 nM.
The same measure, in the same setting: as for `CC(C)C[C@H](NC(=O)[C@H](C)NC(=O)c1ccc2c(c1)C(=O)N(C1CCC(=O)NC1=O)C2=O)B(O)O` (stereo partly drawn) [Compound A90], the figure is 2000 to 10000 nM; as for `CC(C)C[C@H](NC(=O)[C@H](C)NC(=O)c1cccc2c1C(=O)N(C1CCC(=O)NC1=O)C2=O)B(O)O` (stereo partly drawn) [Compound A91], 2000 to 10000 nM.
On the same count and under the same terms, as for `CC(C)C[C@H](NC(=O)[C@H](CC(C)C)NC(=O)Cn1c2ccccc2c2ccncc21)B(O)O` [Compound A92], the figure is 100 to 500 nM.
The same measure, in the same setting: then `CC(C)C[C@H](NC(=O)[C@H](CC(C)C)NC(=O)CN(c1ccccc1)c1ccccc1)B(O)O` [Compound A93], with 500 to 2000 nM; and `CC(C)C[C@H](NC(=O)[C@H](CC(C)C)NC(=O)Cn1c2ccccc2c2cccnc21)B(O)O` [Compound A94], with 500 to 2000 nM; and `COc1ccc2c3ccccc3n(CC(=O)N[C@@H](CC(C)C)C(=O)N[C@@H](CC(C)C)B(O)O)c2c1` [Compound A95], with 500 to 2000 nM.
`CC(C)C[C@H](NC(=O)[C@H](CC(C)C)NC(=O)Cn1c2ccccc2c2cnccc21)B(O)O` [Compound A96] had an IC50 in the experiment on HL60 cells of 100 to 500 nM.
Same read-out and setting: as for `CC(C)C[C@H](NC(=O)[C@H](CC(C)C)NC(=O)Cn1c2ccc(Cl)cc2c2cc(Cl)ccc21)B(O)O` [Compound A97], the figure is 500 to 2000 nM.
`CC(C)C[C@H](NC(=O)[C@H](CC(C)C)NC(=O)Cn1c2ccccc2c2cc(F)ccc21)B(O)O` [Compound A98] yielded an IC50 in the experiment with HL60 cells of 500 to 2000 nM.
Still for that read-out and setting: as for `CC(C)C[C@H](NC(=O)[C@H](CC(C)C)NC(=O)Cn1c2ccccc2c2ccc(Cl)cc21)B(O)O` [Compound A99], the figure is 100 to 500 nM.
Still for that read-out and setting: as for `CC(C)C[C@H](NC(=O)[C@H](CC(C)C)NC(=O)Cn1c2cc(Cl)ccc2c2ccc(Cl)cc21)B(O)O` [Compound A100], the figure is 500 to 2000 nM; as for `CC(C)C[C@H](NC(=O)[C@H](CC(C)C)NC(=O)Cn1c2ccccc2c2ccc(C#N)cc21)B(O)O` [Compound A101], 100 to 500 nM; as for `CC(C)C[C@H](NC(=O)[C@H](CC(C)C)NC(=O)Cn1c2ccccc2c2ccc(Br)cc21)B(O)O` [Compound A102], 100 to 500 nM.
Still for that read-out and setting: as for `CC(C)C[C@H](NC(=O)[C@H](CC(C)C)NC(=O)Cn1c2ccccc2c2ccc(F)cc21)B(O)O` [Compound A103], the figure is 500 to 2000 nM; as for `CC(C)C[C@H](NC(=O)[C@H](CC(C)C)NC(=O)Cn1c2ccccc2c2ncccc21)B(O)O` [Compound A104], 100 to 500 nM.
As for `CC(C)C[C@H](NC(=O)[C@H](CC(C)C)NC(=O)Cn1c2ccccc2c2ccc(OCc3ccccc3)cc21)B(O)O` [Compound A105], in the experiment on HL60 cells, the IC50 was 100 to 500 nM.
Still for that read-out and setting: then `CC(C)C[C@H](NC(=O)[C@H](CC(C)C)NC(=O)Cn1c2ccccc2c2ccc(O)cc21)B(O)O` [Compound A106], with 100 to 500 nM; and `CC(C)C[C@H](NC(=O)[C@H](CC(C)C)NC(=O)Cn1c2ncccc2c2cccnc21)B(O)O` [Compound A107], with 500 to 2000 nM.
